Assay results published in patent US6365616B1, “Methimazole derivatives and tautomeric cyclic thiones to treat autoimmune diseases” (Sentron Medical, Inc., priority 1998, dated 2002).

B1: γ-IFN: rat recombinant γ-interferon, 100 U/ml, used to increase MHC class I and class II expression in FRTL-5 cells (protein, UniProt P01581 23-156, looked up)
Interferon gamma: QGTLIESLESLKNYFNSSSMDAMEGKSLLLDIWRNWQKDGNTKILESQIISFYLRLFEVLKDNQAISNNISVIESHLITNFFSNSKAKKDAFMSIAKFEVNNPQIQHKAVNELIRVIHQLSPESSLRKRKRSRC

Key:
[1] = system: HLA-DRα class II promoter; experiment: Luciferase assay, FRTL-5 cells stably transfected with HLA-DRα class II promoter-luciferase chimeras; assay type: cell-based; conditions: 40 hours; for inhibition at 10 µM / inhibition at 100 µM / inhibition at 1000 µM: FRTL-5, read-out: % inhibition of IFN-increased p(−137)LUC class II promoter activity; for inhibition at 10 µM / inhibition at 100 µM / inhibition at 1000 µM / % inhibition of IFN-increased p(−137)LUC class II promoter activity / Luciferase activity +γ-IFN: 100 U/ml γ-interferon; for inhibition at 10 µM / inhibition at 100 µM / inhibition at 1000 µM / % inhibition of IFN-increased p(−137)LUC class II promoter activity: 6H medium
Description: Similarly, the HLA DRα promoter constructs, p(−176)CAT and p(−137)CAT, inserted into the pCAT-Basic vector were released by restriction enzyme digestion, purified from agarose gel using QIAEX (QIAGEN, Chatsworth, Calif.), and used as templates for the construction by PCR of inserts with a 5′ flanking Mlul restriction site. The PCR products were purified by phenol-chloroform extraction, digested with MluI and XbaI, purified from agarose gels using QIAEX (QIAGEN, Chatsworth, Calif.) and ligated in the MluI-NheI site of the PGL-2 basic vector (PROMEGA, Madison, Wis.) using the DNA ligation kit from TAKARA biomedicals (TAKARA SHUZO Co.). JM1I9 bacterial competent cells (PROMEGA, Madison, Wis.) were transformed with the ligation reaction and plated in agar plates for 12 h at 37° C. The colonies were picked and screened with minipreps using QIAprep spin plasmid kit (QIAGEN, Chatsworth, Calif.) and restriction enzyme digestion. The plasmids were then purified by CsCI gradient centrifugation.
The PD1-PGL-2 basic constructs and the Class II-PGL-2 basic constructs were stably transfected in the FRTL-5 cells using a Lipofectamine (GIBCO, Life Technologies, Inc.) method. Near confluent cells in 6H medium were cotransfected with 20 μg of plasmid DNA and 2 μg of a pcDNA3neo or a pPUR selection vector (CLONTECH, Palo Alto, Calif.). After 24-48 hours, 400 μg/ml of G418 (GIBCO, Life Technologies, Inc.) or 10 μM of puromycin (SIGMA) were added to the medium. After 3 weeks the antibiotic-resistant colonies were cloned by limiting dilution and screened to determine their interferon sensitivity. At least 5 cell lines of each construct were isolated, each of whose activity was increased by adding 100 U/ml γ interferon to the medium of the cells. The following data (Tables 10-13) were obtained with one clone of each of the class I or class II-luciferase chimera, but were representative of at least three other clones of each.
Luciferase activity was measured using the Luciferase assay system (PROMEGA, Madison, Wis.). Briefly, treated or untreated cells from a 100 mm culture dish were washed with PBS, scraped and collected in microfuge tubes. The pellet was dissolved in 100 μl 1× reporter lysis buffer and incubated at room temperature for 15 minutes. Cells were frozen in dry ice plus ethanol and thawed in water at room temperature. After vortexing for 10 sec, tubes were centrifuged at 12,000×g for 5 min. Twenty μl of the supernatant were mixed with 100 μl of Luciferase assay reagent and immediately placed in a luminometer. Light was measured for a period of 10 sec after a 2 sec delay.
Treatment of cells, maintained either in the presence of TSH or its absence, with 100 U/ml interferon, increased class I and class II promoter activity (Table 10). In this experiment FRTL-5 cells were grown to 80% confluency in 6H medium with TSH then treated with 100 U/ml γ-interferon, 5 mM MMI or both together. Luciferase activity was measured after 40 hours as described. Several points are notable. First, interferon increases both class I and class II promoter activity in the stable transfectants. Second, MMI inhibits both interferon-increased class I and interferon-increased class II promoter activity.

[2] = system: protein/DNA complex with Fragment 127 of the MHC class I 5′-flanking region; experiment: Gel shift (EMSA) with downstream 127 class I probe, extracts from treated FRTL-5 cells; assay type: cell-based, rat; conditions: 5H cells treated 48 hours
Method: Cells were grown in 6H medium with 5 % calf serum for 6-7 days to 70-80% confluence, then shifted to 5H medium with 5 % calf serum for 5 days. TSH (1×10^−10 M), gamma-interferon (100 U/ml), MMI (5 mM), and different concentrations of MMI derivatives or tautomeric cyclic thiones (0.0001 to 10 mM) were added as appropriate for […]. Cells were then harvested and extracts were made by a modification of a method of Dignam, J., et al. Methods in Enzymology, 101:582-598 (1983). In brief, cells were harvested by scraping after being washed twice with cold phosphate-buffer saline (PBS). Subsequently they were pelleted, washed in cold PBS and then pelleted again. The pellet was resuspended in Dignam buffer C (20 mM Hepes buffer at pH 7.9, 1.5 mM MgCl2, 0.42 M NaCl, 25% glycerol, 0.5 mM dithiotreitol (DTT), 0.5 mM phenylmethylsulfonylfluoride (PMSF), 1 […] pepstatin). The final NaCl concentration was adjusted on the basis of cell pellet volume to 0.42 M and cells were lysed by repeated cycles of freezing and thawing. Extracts were then centrifuged at 10,000×g at 4° C. for 20 min. The supernatant was recovered, aliquoted and stored at −70° C.
Binding reactions were performed in a volume of 20 μl for 30 min at room temperature. The typical reaction mixture contained 1.5 fmol of ^32P DNA, 3 μg of cell extracts, 1 to 3 μg of poly (dI-dC) in 10 mM Tris-Cl (pH 7.9), 1 mM MgCl2, 1 mM DTT, 1 mM ethylenediamine tetra acetic acid (EDTA), and 5 % glycerol. After incubation, reaction mixtures were subjected to electrophoresis in 4% polyacrylamide gels for 90-120 min at 160 V in 0.5× TBE (Sambrook, J., et al., Molecular Cloning: A Laboratory Manual, 2nd ed. Cold Spring Harbor Press, NY, 2: 11.23-11.44 (1989)), then dried and autoradiographed. Probes were labeled with [α32P] deoxy CTP by Klenow enzyme (In Vitro labeling kit, Amersham) following the manufacturer's instructions, or by [γ^32P] ATP using T4 polynucleotide kinase. Labeled probes were then purified either through G-50 columns (5 prime→3 Prime) or on an 8% polyacrylamide gel.
FIG. 3 denotes the sequence of the downstream region of the PD1 promoter. The location of enhancer A (−180 to −170 bp), the interferon response element (IRE; −161 to −150 bp), and the cAMP response element (CRE; −107 to −100 bp) are noted. The downstream silencer is between −127 and −80 bp (Saji, et al., ibid, 20096-20107 (1997)). Using a 127 bp probe, −125 to +1 bp, MMI (lane 4) or TSH (lane 10) induce the formation of a rapidly migrating protein/DNA complex (FIG. 4) which is clearly evident 24 to 48 h after SH cells are treated. MMI derivatives can also increase this complex, as illustrated for compound 8 in FIG. 4 (lanes 1 to 3). The time most suitable for measurement is 24 to 48 h (FIG. 4) the complex can be quantitated by comparison to control (lane 7 or 9) using densitometry or the phosphoimager as noted earlier. In this case, the increase over control (set at 1) is measured in arbitrary units relative to the maximal increase induced by 5 mM MMI which is arbitrarily set at 10. The results using all 11 compounds in Table 1, each added to cells at different concentrations 48 hours before extracts were prepared, are summarized in Table 3.

Row | Molecule | inhibition at 10 µM ([1]; 10 μM) [%] | inhibition at 100 µM ([1]; 100 μM) [%] | inhibition at 1000 µM ([1]; 1 mM) [%] | Luciferase activity + 5 mM MMI ([1]; −137 HLA-DRα-LUC) [% Control] | Luciferase activity + 5 mM MMI ([1]; −167 HLA-DRα-LUC) [% Control] | % increase over control relative to the maximal (5 mM) MMI-increased silencer complex which is set at 10 ([2]; 10 μM) [%] | % increase over control relative to the maximal (5 mM) MMI-increased silencer complex which is set at 10 ([2]; 100 μM) [%] | % increase over control relative to the maximal (5 mM) MMI-increased silencer complex which is set at 10 ([2]; 1 mM) [%] | % increase over control relative to the maximal (5 mM) MMI-increased silencer complex which is set at 10 ([2]; 5 mM) | % inhibition of IFN-increased p(−137)LUC class II promoter activity ([1]; 10 μM) [%] | % inhibition of IFN-increased p(−137)LUC class II promoter activity ([1]; 100 μM) [%] | % inhibition of IFN-increased p(−137)LUC class II promoter activity ([1]; 1 mM) [%] | Luciferase activity +γ-IFN ([1]; −137 HLA-DRα-LUC) [% Control] | Luciferase activity +γ-IFN ([1]; −167 HLA-DRα-LUC) [% Control]
1 | Cn1ccnc1S [Compound 1, 1-Methylimidazole-2-thiol] | 0 | 0 | 37 ± 10 | 103 ± 6 | 99 ± 5 | 0 | 0 | 2 ± 1 | 10% | – | – | – | – | –
2 | Cc1ncc([N+](=O)[O-])n1CCO [Compound 2, 2-Methyl-5-nitro-1-imidazole ethanol] | 0 | 7 ± 6 | 65 ± 9 | – | – | 0 | 0 | 5 ± 1 | 10 ± 2% | – | – | – | – | –
3 | Sc1ncc[nH]1 [Compound 3, 2-Mercaptoimidazole] | – | – | – | – | – | 0 | 0 | 0 | 0% | – | – | – | – | –
4 | Sc1nc2ccccc2[nH]1 [Compound 4, 2-Mercaptobenzimidazole] | – | – | – | – | – | 0 | 3 ± 0.5 | 9 ± 1.5 | Insol | – | – | – | – | –
5 | O=[N+]([O-])c1ccc2[nH]c(S)nc2c1 [Compound 5, 2-Mercapto-5-nitrobenzimidazole] | – | – | – | – | – | 0 | 0 | 0 | Insol | – | – | – | – | –
6 | Cc1ccc2[nH]c(S)nc2c1 [Compound 6, 2-Mercapto-5-methylbenzimidazole] | – | – | – | – | – | 0 | 0 | 3 ± 2 | Insol | – | – | – | – | –
7 | CSc1nccn1C [Compound 7, S-Methylmethimazole] | 0 | 30 ± 7 | 68 ± 10 | – | – | 0 | 2 ± 1 | 6 ± 0.5 | – | – | – | – | – | –
8 | Cn1ccn(C)c1=S [Compound 8, N-Methylmethimazole] | – | – | – | – | – | 0 | 3 ± 2 | 9 ± 1 | – | 0 | 43 ± 5 | 84 ± 9 | – | –
9 | Cc1cnc(S)n1C [Compound 9, 5-Methylmethimazole] | – | – | – | – | – | 0 | 0 | 1.5 ± 1.5 | 2.5 ± 1% | – | – | – | – | –
10 | Cn1c(-c2ccccc2)cnc1S [Compound 10, 5-Phenylmethimazole] | 43 ± 20 | 80 ± 7 | 92 ± 10 | – | – | 3 ± 1.5 | 7 ± 1 | 10 ± 1 | – | – | – | – | – | –
11 | B1 | – | – | – | – | – | – | – | – | – | – | – | – | 695 ± 42 | 790 ± 45
